Reference: patent US10702521B2, “Methods for treating neisseria gonorrhoeae infection with substituted 1,2-dihydro-2A,5,8A-triazaacenaphthylene-3,8-diones” (priority 2014, dated 2020)
Counter-ions that a name gives are not always drawn. Like-named read-outs stand apart in the source and are kept apart here.

System: Mycobacterium tuberculosis H37Rv
Assay: Mycobacterium tuberculosis H37Rv Inhibition Assay (resazurin MIC)
Assay type: cell-based
[1] = 144 h, H37Rv strain, six days incubation, resazurin fluorescence after 48 hours, read-out: MIC value
[2] = 144 h, read-out: MIC value, H37Rv strain, six days incubation, resazurin fluorescence after 48 hours
[3] = read-out: MIC value, H37Rv strain, six days incubation, resazurin fluorescence after 48 hours

Cl.O=c1ccc2ncc(=O)n3c2n1C[C@H]3CN1CCC(NCc2cc3c(cn2)OCCS3)CC1 [Example 19A, (2R)-2-({4-[(2,3-Dihydro[1,4]oxathiino[2,3-c]pyridin-7-ylmethyl)amino]-1-piperidinyl}methyl)-1,2-dihydro-3H,8H-2a,5,8a-triazaacenaphthylene-3,8-dione hydrochloride]
MIC [1]: < 2 µg/mL

O=c1ccc2ncc(=O)n3c2n1C[C@H]3CN1CCC(NCc2cnc3nsnc3c2)CC1 [Example 49, (2R)-2-({4-[([1,2,5]Thiadiazolo[3,4-b]pyridin-6-ylmethyl)amino]-1-piperidinyl}methyl)-1,2-dihydro-3H,8H-2a,5,8a-triazaacenaphthylene-3,8-dione]
MIC [1]: < 2 µg/mL

O=c1ccc2ncc(=O)n3c2n1C[C@H]3CN1CCC(NCc2ccc3c(c2)OCCO3)CC1 [Example 40, (2R)-2-({4-[(2,3-Dihydro-1,4-benzodioxin-6-ylmethyl)amino]-1-piperidinyl}methyl)-1,2-dihydro-3H,8H-2a,5,8a-triazaacenaphthylene-3,8-dione hydrochloride]
MIC [2]: < 2 µg/mL

O=c1ccc2ncc(=O)n3c2n1C[C@H]3CN1CCC(NCc2ccc3nsnc3c2)CC1 [Example 25, (2R)-2-({4-[(2,1,3-Benzothiadiazol-5-ylmethyl)amino]-1-piperidinyl}methyl)-1,2-dihydro-3H,8H-2a,5,8a-triazaacenaphthylene-3,8-dione hydrochloride]
MIC [2]: ≤ 1 µg/mL

O=c1ccc2ccc(=O)n3c2n1C[C@H]3CN1CCC(NCc2ccc3c(c2)OCCO3)CC1 [Example 30, (1R)-1-({4-[(2,3-Dihydro-1,4-benzodioxin-6-ylmethyl)amino]-1-piperidinyl}methyl)-1,2-dihydro-4H,9H-imidazo[1,2,3-ij]-1,8-naphthyridine-4,9-dione hydrochloride]
MIC [1]: < 2 µg/mL

N#Cc1cc(CNC2CCN(C[C@@H]3Cn4c(=O)cnc5ccc(=O)n3c54)CC2)cc2c1OCCO2 [Example 56, 7-{[(1-{[(1R)-3,8-Dioxo-1,2-dihydro-3H,8H-2a,5,8a-triazaacenaphthylen-1-yl]methyl}-4-piperidinyl)amino]methyl}-2,3-dihydro-1,4-benzodioxin-5-carbonitrile hydrochloride]
MIC [2]: < 2 µg/mL

O=c1cnc2ccc(=O)n3c2n1C[C@H]3CN1CCC(NCc2cc3c(cn2)OCS3)CC1 [Example 13A, (1R)-1-({4-[([1,3]Oxathiolo[5,4-c]pyridin-6-ylmethyl)amino]-1-piperidinyl}methyl)-1,2-dihydro-3H,8H-2a,5,8a-triazaacenaphthylene-3,8-dione hydrochloride]
MIC [2]: < 2 µg/mL

O=C1CSc2ccc(CNC3CCN(C[C@@H]4Cn5c(=O)ccc6ncc(=O)n4c65)CC3)nc2N1 [Example 29, (2R)-2-[(4-{[(3-Oxo-3,4-dihydro-2H-pyrido[3,2-b][1,4]thiazin-6-yl)methyl]amino}-1-piperidinyl)methyl]-1,2-dihydro-3H,8H-2a,5,8a-triazaacenaphthylene-3,8-dione hydrochloride]
MIC (H37Rv strain, six days incubation, resazurin fluorescence after 48 hours, read-out: MIC value): < 2 µg/mL

O=c1ccc2ccc(=O)n3c2n1CC3CN1CCC(NCc2cc3c(cn2)OCS3)CC1 (centres unmarked) [Example 2, 1-({4-[([1,3]Oxathiolo[5,4-c]pyridin-6-ylmethyl)amino]-1-piperidinyl}methyl)-1,2-dihydro-4H,9H-imidazo[1,2,3-ij]-1,8-naphthyridine-4,9-dione hydrochloride]
MIC [3]: < 2 µg/mL

O=c1cnc2ccc(=O)n3c2n1C[C@H]3CN1CCC(NCc2ccc3c(c2)OCCO3)CC1 [Example 44, (1R)-1-({4-[(2,3-Dihydro-1,4-benzodioxin-6-ylmethyl)amino]-1-piperidinyl}methyl)-1,2-dihydro-3H,8H-2a,5,8a-triazaacenaphthylene-3,8-dione hydrochloride]
MIC [3]: < 2 µg/mL

O=c1ccc2ncc(=O)n3c2n1C[C@H]3CN1CCC(NCc2cc3c(cc2F)OCCO3)CC1 [Example 26, (2R)-2-[(4-{[(7-Fluoro-2,3-dihydro-1,4-benzodioxin-6-yl)methyl]amino}-1-piperidinyl)methyl]-1,2-dihydro-3H,8H-2a,5,8a-triazaacenaphthylene-3,8-dione hydrochloride]
MIC [2]: ≤ 1 µg/mL
